The target of one assay is T1, CDK9 (Homo sapiens, UniProt P50750).
T1 construct: endogenous in cells; host or cells: MDA-MB-231
Kind of assay: Western blot, target protein degradation in MDA-MB-231 Cell. In kind it is cell-based. The note with it: substrate protein remaining %, treated at 500 nM and 50 nM, 24 hours. As for the experimental part: Conventional Western blot assay was performed to evaluate the effects of the compounds of the present disclosure on the expression of target proteins in cells.
(1) Cell Seeding and Protein Harvesting: The selected cells were processed according to the cell seeding procedure and protein harvesting procedure in Table II-2. Table II-2 Cell Seeding and Protein Harvesting Procedures
(2) To the collected supernatant, 5X SDS sample loading buffer was added, followed by denaturation at 95°C for 5 minutes. The denatured samples were then separated by SDS-PAGE electrophoresis on a polyacrylamide gel. Proteins were transferred to a nitrocellulose membrane (0.45 µm NC membrane), blocked with blocking buffer at room temperature for 1 hour, and subjected to antibody incubation and development procedures according to the antibody manufacturer's instructions (Cell Signaling Technology).
Half-Maximal Degradation Concentration value (the drug concentration required for degrading proteins by 50%, abbreviated as DC50) reads method: comparing the grayscale values of Western blot bands from drug-treated samples with those from blank DMSO-treated controls, and identifying the drug concentration range at which the grayscale value is half that of the DMSO-treated control bands.
DC50 values can be calculated using ImageJ software to measure grayscale values of Western blot bands from drug-treated samples. The concentration-response curve is fitted to estimate the drug concentration corresponding to half the grayscale value.
Target protein remaining (%) refers to the percentage of target protein remaining in cells after treatment with protein degrader compounds.
Calculation method for target protein remaining (%): Use ImageJ software to measure grayscale values of Western blot bands from drug (protein degrader)-treated samples. The grayscale value of drug-treated bands is divided by that of internal control protein bands, and the resulting quotient is normalized to obtain the relative percentage of remaining target protein after protein degrader treatment. Target protein degradation rate(%) = 1−target protein remaining(%). [formula]
For orientation: Immunoblotting shows a protein as a band on a membrane.

Assay [1] has as its target T2, human Cereblon WT GST-tagged protein (Homo sapiens, UniProt Q96SW2).
T2 construct: purchased CISBIO 64BDCRBNPEH
In words: CRBN-binding affinity, HTRF (CEREBLON BINDING kit). The note with it: for inhibition at 0.5 µM: read-out: Inhibition Rate at 0.5 µM (%); for inhibition at 2 µM: read-out: Inhibition Rate at 2 µM (%). The procedure, abridged: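 Binding to GST-tagged Cereblon was probed by HTRF tracer displacement (thalidomide-red acceptor, anti-GST Eu donor), with compounds present at final 2 µM and 0.5 µM.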

In the next assay the test system is MV-4-11. In words: Tumor cell proliferation inhibition (CellTiter-Meiluncell Luminescent Cell Viability Assay). The assay is classed as cell-based. The note with it: Homo sapiens, 96 hours, Table I-7, CDK9 inhibitors; for inhibition at 0.01 µM: MV4-11, 10 nM, read-out: Inhibition Rate at 10 nM (%); for inhibition at 0.5 µM: MV4-11, 500 nM, read-out: Inhibition Rate at 500 nM (%). The procedure, abridged:
(§1)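 Following overnight seeding, tumor cells received serial compound dilutions to final levels that included 10 nM and 500 nM. Viability was assessed by luminescence at the end of the specified exposure time. Cultures were kept at 37°C with 5% CO2.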

The test system of another assay is MM.1S. The description is as above. In kind it is cell-based. The note with it: Homo sapiens, MM1.S, MM.1S, 96 hours, Table I-7, CDK9 inhibitors; for inhibition at 0.01 µM: 10 nM, read-out: Inhibition Rate at 10 nM (%); for inhibition at 0.5 µM: 500 nM, read-out: Inhibition Rate at 500 nM (%). The procedure, abridged:
as §1

The test system of another assay is H1975. The assay is described as above. The assay is classed as cell-based. The note with it: Homo sapiens, 96 hours, Table I-3, EGFR inhibitors; for inhibition at 0.01 µM: NCI-H1975, 10 nM, read-out: Inhibition Rate at 10 nM (%); for inhibition at 0.5 µM: NCI-H1975, 500 nM, read-out: Inhibition Rate at 500 nM (%). The procedure, abridged: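 Cells were grown at 37°C under 5% CO2, seeded into 96-well plates, and dosed with compound on the next day. After a set treatment period, viability was read by luminescence with the CellTiter-Meiluncell reagent and IC50 values were derived. Final compound concentrations included 500 nM and 10 nM.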

Usually inhibition stands for the change of the read-out against control, counted positive when it falls.

Molecules are shown by their SMILES.

T1 sequence (P50750 whole entry): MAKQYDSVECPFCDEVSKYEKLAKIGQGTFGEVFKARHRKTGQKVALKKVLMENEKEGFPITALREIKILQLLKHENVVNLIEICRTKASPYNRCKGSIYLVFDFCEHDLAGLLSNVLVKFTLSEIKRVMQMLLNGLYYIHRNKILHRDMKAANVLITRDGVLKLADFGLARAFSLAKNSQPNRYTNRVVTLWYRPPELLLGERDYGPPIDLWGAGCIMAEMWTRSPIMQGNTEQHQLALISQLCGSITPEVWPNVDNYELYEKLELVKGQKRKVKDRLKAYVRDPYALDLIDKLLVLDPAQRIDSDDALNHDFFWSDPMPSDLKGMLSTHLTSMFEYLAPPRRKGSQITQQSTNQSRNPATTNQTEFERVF
T2 sequence (Q96SW2 whole entry): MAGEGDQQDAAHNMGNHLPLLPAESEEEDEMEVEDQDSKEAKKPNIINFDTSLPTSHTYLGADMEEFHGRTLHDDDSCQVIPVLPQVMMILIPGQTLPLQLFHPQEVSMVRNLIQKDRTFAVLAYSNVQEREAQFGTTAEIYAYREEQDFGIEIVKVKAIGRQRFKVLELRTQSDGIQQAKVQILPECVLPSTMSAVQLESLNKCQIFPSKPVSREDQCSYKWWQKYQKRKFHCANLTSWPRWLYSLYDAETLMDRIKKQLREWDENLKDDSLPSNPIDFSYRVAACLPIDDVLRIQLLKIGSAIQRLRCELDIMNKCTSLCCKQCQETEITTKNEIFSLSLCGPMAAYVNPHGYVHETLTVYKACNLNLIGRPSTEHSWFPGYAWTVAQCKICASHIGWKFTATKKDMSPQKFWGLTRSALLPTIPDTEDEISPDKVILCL

As to `N#CC1(CNc2nc(-c3cc(NC4CCN(Cc5ccc6c(c5)CN(C5CCC(=O)NC5=O)C6=S)CC4)ncc3Cl)cs2)CCOCC1` (stereo not shown) [GT-08681, 4-(((4-(5-chloro-2-((1-((2-(2,6-dioxopiperidin-3-yl)-1-thioxoisoindolin-5-yl)methyl)piperidin-4-yl)amino)pyridin-4-yl)thiazol-2-yl)amino)methyl)tetrahy dro-2H-pyran-4-carbonitrile], the “Degradation of substrate protein CDK9” value on CDK9 is recorded as “A (0% ≤ substrate protein remaining % ≤ 80%)”. In addition, in assay [1], the inhibition at 0.5 µM lay within 53 to 60% and the inhibition at 2 µM lay in the range of 80 to 100%.

With `Cn1ncc(-c2nc(NC3CCN(Cc4ccc5c(c4)CN(C4CCC(=O)NC4=O)C5=S)CC3)ncc2Cl)c1CC1CC1` (stereo not shown) [GT-08682, 3-(5-((4-((5-chloro-4-(5-(cyclopropylmethyl)-1-methyl-1H-pyrazol-4-yl)pyrimidin-2-yl)amino)piperidin-1-yl)methyl)-1-thioxoisoindolin-2-yl)piperidine-2,6-dione], in the assay on MV-4-11, the inhibition at 0.01 µM is 30 to 40% and the inhibition at 0.5 µM was in the range of 60 to 70%. In the assay with MM.1S, the inhibition at 0.01 µM was in the range of 10 to 20% and the inhibition at 0.5 µM was in the range of 50 to 60%. Moreover, the “Degradation of substrate protein CDK9” value on CDK9 is “A (0% ≤ substrate protein remaining % ≤ 80%)”. In assay [1], the inhibition at 0.5 µM was in the range of 60 to 80% and the inhibition at 2 µM fell in the range of 80 to 100%.

On to `N#CC1(CNc2cccc(-c3cc(NC4CCN(Cc5ccc6c(c5)CN(C5CCC(=O)NC5=O)C6=S)CC4)ncc3Cl)n2)CCOCC1` (stereo not shown) [GT-08683, 4-(((5'-chloro-2'-((1-((2-(2,6-dioxopiperidin-3-yl)-1-thioxoisoindolin-5-yl)methyl)piperidin-4-yl)amino)-[2,4'-bipyridin]-6-yl)amino)methyl)tetrahy dro-2H-pyran-4-carbonitrile], for which, in the assay with MV-4-11, the inhibition at 0.01 µM is 50 to 60% and the inhibition at 0.5 µM was in the range of 50 to 60%. Also, on CDK9, the “Degradation of substrate protein CDK9” value is “A (0% ≤ substrate protein remaining % ≤ 80%)”. In assay [1], the inhibition at 0.5 µM lay in the range of 40 to 53% and the inhibition at 2 µM was in the range of 80 to 100%.

For the compound `O=C1CCC(N2Cc3cc(CN4CCN(c5ccc(CC(=O)Nc6cc(C7CCC7)[nH]n6)cc5)CC4)ccc3C2=S)C(=O)N1` (stereo not shown) [GT-08684, N-(5-cyclobutyl-1H-pyrazol-3-yl)-2-(4-(4-((2-(2,6-dioxopiperidin-3-yl)-1-thioxoisoindolin-5-yl)methyl)piperazin-1-yl)phenyl)acetamide], the “Degradation of substrate protein CDK9” value on CDK9 is reported as “A (0% ≤ substrate protein remaining % ≤ 80%)”. In assay [1], the inhibition at 0.5 µM fell in the range of 60 to 80% and the inhibition at 2 µM was in the range of 80 to 100%.

As to `N#CC1(CNc2nc(-c3cc(NC4CCN(Cc5cccc6c5CN(C5CCC(=O)NC5=O)C6=S)CC4)ncc3Cl)cs2)CCOCC1` (stereo not shown) [GT-08685, 4-(((4-(5-chloro-2-((1-((2-(2,6-dioxopiperidin-3-yl)-1-thioxoisoindolin-4-yl)methyl)piperidin-4-yl)amino)pyridin-4-yl)thiazol-2-yl)amino)methyl)tetrahy dro-2H-pyran-4-carbonitrile], the “Degradation of substrate protein CDK9” value on CDK9 is reported as “A (0% ≤ substrate protein remaining % ≤ 80%)”. For the same compound, in assay [1], the inhibition at 0.5 µM is 53 to 60% and the inhibition at 2 µM was 80 to 100%.

As to `Cn1ncc(-c2nc(NC3CCN(Cc4cccc5c4CN(C4CCC(=O)NC4=O)C5=S)CC3)ncc2Cl)c1CC1CC1` (stereo not shown) [GT-08686, 3-(4-((4-((5-chloro-4-(5-(cyclopropylmethyl)-1-methyl-1H-pyrazol-4-yl)pyrimidin-2-yl)amino)piperidin-1-yl)methyl)-1-thioxoisoindolin-2-yl)piperidine-2,6-dione], in the assay on MV-4-11, the inhibition at 0.01 µM lay within 50 to 60% and the inhibition at 0.5 µM was 80 to 100%. In addition, in the assay on MM.1S, the inhibition at 0.01 µM lay within 0 to 5% and the inhibition at 0.5 µM fell in the range of 80 to 100%. Further, on CDK9, the “Degradation of substrate protein CDK9” value is reported as “A (0% ≤ substrate protein remaining % ≤ 80%)”. In assay [1], the inhibition at 0.5 µM was 53 to 60% and the inhibition at 2 µM lay in the range of 80 to 100%.

`N#CC1(CNc2cccc(-c3cc(NC4CCN(Cc5cccc6c5CN(C5CCC(=O)NC5=O)C6=S)CC4)ncc3Cl)n2)CCOCC1` (stereo not shown) [GT-08687, 4-(((5'-chloro-2'-((1-((2-(2,6-dioxopiperidin-3-yl)-1-thioxoisoindolin-4-yl)methyl)piperidin-4-yl)amino)-[2,4'-bipyridin]-6-yl)amino)methyl)tetrahy dro-2H-pyran-4-carbonitrile]: at CDK9, the “Degradation of substrate protein CDK9” value was “A (0% ≤ substrate protein remaining % ≤ 80%)”. In addition, in assay [1], the inhibition at 0.5 µM lay in the range of 30 to 40% and the inhibition at 2 µM fell in the range of 60 to 80%.

For the compound `O=C1CCC(N2Cc3c(CN4CCN(c5ccc(CC(=O)Nc6cc(C7CCC7)[nH]n6)cc5)CC4)cccc3C2=S)C(=O)N1` (stereo not shown) [GT-08688, N-(5-cyclobutyl-1H-pyrazol-3-yl)-2-(4-(4-((2-(2,6-dioxopiperidin-3-yl)-1-thioxoisoindolin-4-yl)methyl)piperazin-1-yl)phenyl)acetamide], in the assay on MV-4-11, the inhibition at 0.01 µM is 40 to 50% and the inhibition at 0.5 µM fell in the range of 50 to 60%. At CDK9, the “Degradation of substrate protein CDK9” value was “A (0% ≤ substrate protein remaining % ≤ 80%)”. Besides, in assay [1], the inhibition at 0.5 µM was 60 to 80% and the inhibition at 2 µM fell in the range of 80 to 100%.

As to `N#CC1(CNc2cccc(-c3cc(NC4CCN(Cc5ccc6c(c5)C(=S)N(C5CCC(=O)NC5=O)C6)CC4)ncc3Cl)n2)CCOCC1` (stereo not shown) [GT-08752, 4-(((5'-chloro-2'-((1-((2-(2,6-dioxopiperidin-3-yl)-3-thioxoisoindolin-5-yl)methyl)piperidin-4-yl)amino)-[2,4'-bipyridin]-6-yl)amino)methyl)tetrahy dro-2H-pyran-4-carbonitrile], in the assay with MV-4-11, the inhibition at 0.01 µM fell in the range of 10 to 20% and the inhibition at 0.5 µM fell in the range of 70 to 80%. Besides, the “Degradation of substrate protein CDK9” value at CDK9 is given as “A (0% ≤ substrate protein remaining % ≤ 80%)”. In assay [1], the inhibition at 0.5 µM was in the range of 53 to 60% and the inhibition at 2 µM is 80 to 100%.

Regarding `O=C1CCC(N2Cc3ccc(CN4CCN(c5ccc(CC(=O)Nc6cc(C7CCC7)[nH]n6)cc5)CC4)cc3C2=S)C(=O)N1` (stereo not shown) [GT-08753, N-(5-cyclobutyl-1H-pyrazol-3-yl)-2-(4-(4-((2-(2,6-dioxopiperidin-3-yl)-3-thioxoisoindolin-5-yl)methyl)piperazin-1-yl)phenyl)acetamide], the “Degradation of substrate protein CDK9” value at CDK9 was “A (0% ≤ substrate protein remaining % ≤ 80%)”. In assay [1], the inhibition at 0.5 µM lay in the range of 60 to 80% and the inhibition at 2 µM was in the range of 80 to 100%.

Regarding `O=C1CCC(N2Cc3cc(CN4C[C@H]5C[C@@H]4CN5c4ccc(-c5cc(F)c6c(c5)C(=O)N(C(C(=O)Nc5nccs5)c5ncn7c5CCC7)C6)cc4)ccc3C2=S)C(=O)N1` (stereo partly drawn) [GT-08757, 2-(6,7-dihydro-5H-pyrrolo[1,2-c]imidazol-1-yl)-2-(6-(4-((1R,4R)-5-((2-(2,6-dioxopiperidin-3-yl)-1-thioxoisoindolin-5-yl)methyl)-2,5-diazabicyclo[2.2.1]heptan-2-yl)phenyl)-4-fluoro-1-oxoisoindolin-2-yl)-N-(thiazol-2-vl)acetamide], in the assay with H1975, the inhibition at 0.01 µM lay in the range of 20 to 30% and the inhibition at 0.5 µM was in the range of 50 to 60%. In assay [1], the inhibition at 0.5 µM lay in the range of 53 to 60% and the inhibition at 2 µM was 60 to 80%.

Regarding `O=C1CCC(N2Cc3c(CN4C[C@H]5C[C@@H]4CN5c4ccc(-c5cc(F)c6c(c5)C(=O)N(C(C(=O)Nc5nccs5)c5ncn7c5CCC7)C6)cc4)cccc3C2=S)C(=O)N1` (stereo partly drawn) [GT-08760, 2-(6,7-dihydro-5H-pyrrolo[1,2-c]imidazol-1-yl)-2-(6-(4-((1R,4R)-5-((2-(2,6-dioxopiperidin-3-yl)-1-thioxoisoindolin-4-yl)methyl)-2,5-diazabicyclo[2.2.1]heptan-2-yl)phenyl)-4-fluoro-1-oxoisoindolin-2-yl)-N-(thiazol-2-yl)acetamide], in the assay with H1975, the inhibition at 0.01 µM lay within 20 to 30% and the inhibition at 0.5 µM lay within 50 to 60%. For the same compound, in assay [1], the inhibition at 0.5 µM lay in the range of 30 to 40% and the inhibition at 2 µM lay in the range of 53 to 60%.
